# Source: US20250320213A1, “Nitrogen-Containing Heterocyclic Compounds” (Pfizer Inc., priority 2024, published 2025)
# pEC50, pIC50: −log10 of the molar value. Structures can show the parent of a compound that is named as a salt. Where two headings read alike, the source gives them in different places.
# Assays:
# [1] = tested on: CCL17 secretion in peripheral human whole blood; assay: Human Whole Blood (HWB) CCL17 TR-FRET Assay (IL-13 stimulated CCL17 secretion); type: cell-based
# Procedure, shortened: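 Compounds are titrated (11 points, 3-fold, duplicate) into fresh heparinized human whole blood and held 2 h at 37 °C before IL-13 challenge (10 ng/mL final). After 48 h at 37 °C, serum CCL17 is measured by TR-FRET sandwich assay and IC50 values are calculated.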
# STAT6 = biological target: T1, STAT6 (Homo sapiens, UniProt P42226); assay: STAT6 Reporter Luciferase Assay (IL-13 stimulated HaCaT keratinocyte NanoLuc reporter cells); type: cell-based
# T1 construct: stably transfected HaCaT keratinocyte cell line, which expresses NanoLuc luciferase reporter gene under the transcriptional control of the STAT6 responsive promoter; endogenous in cells; host or cells: HaCaT keratinocyte reporter cell line (stably transfected with a NanoLuc reporter)
# T1 sequence (P42226 1-847): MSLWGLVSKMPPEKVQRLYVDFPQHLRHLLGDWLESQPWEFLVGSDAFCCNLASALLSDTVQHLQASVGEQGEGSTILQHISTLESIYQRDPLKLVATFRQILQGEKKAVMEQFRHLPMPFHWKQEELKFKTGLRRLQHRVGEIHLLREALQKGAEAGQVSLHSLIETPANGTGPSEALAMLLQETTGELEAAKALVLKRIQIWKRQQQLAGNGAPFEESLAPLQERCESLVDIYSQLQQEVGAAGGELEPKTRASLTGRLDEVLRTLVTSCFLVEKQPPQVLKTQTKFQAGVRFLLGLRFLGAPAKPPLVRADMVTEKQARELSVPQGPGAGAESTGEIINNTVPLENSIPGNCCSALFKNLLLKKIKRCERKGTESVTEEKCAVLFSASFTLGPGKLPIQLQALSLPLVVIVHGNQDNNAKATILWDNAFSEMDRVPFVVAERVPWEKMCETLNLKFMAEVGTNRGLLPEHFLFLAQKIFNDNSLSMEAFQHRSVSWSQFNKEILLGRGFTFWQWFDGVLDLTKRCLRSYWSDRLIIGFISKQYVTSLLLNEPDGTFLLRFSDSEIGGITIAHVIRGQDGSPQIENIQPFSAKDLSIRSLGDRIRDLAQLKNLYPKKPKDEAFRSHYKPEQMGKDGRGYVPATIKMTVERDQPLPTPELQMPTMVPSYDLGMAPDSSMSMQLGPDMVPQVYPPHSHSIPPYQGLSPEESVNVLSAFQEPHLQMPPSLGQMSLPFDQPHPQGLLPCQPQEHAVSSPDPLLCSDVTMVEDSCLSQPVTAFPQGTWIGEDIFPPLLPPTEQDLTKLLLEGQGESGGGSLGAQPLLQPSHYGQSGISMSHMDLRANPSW
# Procedure, shortened: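 HaCaT IL-13Ra2-promoter NanoLuc reporter; cpd 2 h 37 °C in DMEM/2% HI FBS; IL-13 0.12 nM final, 4 h; Nano-Glo luminescence.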
# [2] = Homo sapiens, 48 h, human whole blood, 10 ng/mL IL13, 48 hours
# [3] = IL-13 stimulated HaCaT STAT6 NanoLuc reporter cells, read-out: Reporter EC50
# [4] = Homo sapiens, 48 h, human whole blood, IL-13 stimulated
# [5] = Homo sapiens, 48 h, inhibition of CCL17 secretion in human whole blood, 10 ng/mL IL13, 48 hours
# [6] = STAT6 NanoLuc luciferase reporter, IL-13 stimulated HaCaT keratinocyte cells, read-out: Reporter EC50
SMILES,pEC50 (STAT6; [3]),"pIC50 [1, 4]",pEC50 (STAT6; [6]),also measured
"CC(C)n1nc(C(=O)NCc2ccc(NC(=O)N(C)C)cc2)c2c1[C@@H](C)CN(c1ccc(C(=O)N(C)CCN3CCOCC3)cc1)C2 [Example 636, (S)-N-(4-(3,3-dimethylureido)benzyl)-1-isopropyl-7-methyl-5-(4-(methyl(2-morpholinoethyl)carbamoyl)phenyl)-4,5,6,7-tetrahydro-1H-pyrazolo[4,3-c]pyridine-3-carboxamide]",8.52,,,"pIC50 [1, 2]: 7.48"
"CC(C)n1nc(C(=O)NCc2ccc(NC(=O)N(C)C)cc2)c2c1[C@@H](C)[C@H](C)N(c1ncc(C(=O)N(C)C)cn1)C2 (single isomer, unassigned) [Example 449]",9.70,8.40,,
"CN(C)C(=O)Nc1ccc(CNC(=O)c2nn(C)c3c2CN(c2ccc(C(=O)N(C)C)cn2)CC3(F)F)cc1 [Example 70, 5-(5-(dimethylcarbamoyl)pyridin-2-yl)-N-(4-(3,3-dimethylureido)benzyl)-7,7-difluoro-1-methyl-4,5,6,7-tetrahydro-1H-pyrazolo[4,3-c]pyridine-3-carboxamide]",,,8.10,"pIC50 [1, 5]: 7.09"
"CC(C)n1nc(C(=O)NCc2ccc(-c3cnn(C)c3)cc2)c2c1[C@@H](C)CN(c1ccc(C(=O)N(C)C)cc1)C2 [Example 732, (S)-5-(4-(dimethylcarbamoyl)phenyl)-1-isopropyl-7-methyl-N-(4-(1-methyl-1H-pyrazol-4-yl)benzyl)-4,5,6,7-tetrahydro-1H-pyrazolo[4,3-c]pyridine-3-carboxamide]",7.06,,,"pIC50 ([1]; Homo sapiens, 48 h, human whole blood, IL-13 10 ng/mL): 5.51"
"CCn1nc(C(=O)NCc2ccc(NC(=O)N(C)C)nc2)c2c1[C@@H](C)CN(c1ccc(C(=O)N(C)C)cn1)C2 [Example 323, (S)-5-(5-(dimethylcarbamoyl)pyridin-2-yl)-N-((6-(3,3-dimethylureido)pyridin-3-yl)methyl)-1-ethyl-7-methyl-4,5,6,7-tetrahydro-1H-pyrazolo[4,3-c]pyridine-3-carboxamide]",8.30,7.59,,
"CC(C)n1nc(C(=O)NCc2ccc(NC(=O)N3C[C@@H]4CC[C@H]3CO4)cc2)c2c1CCN(c1ccc(C(=O)N(C)C)cn1)C2 [Example 142, (1S,4S)-N-(4-((5-(5-(dimethylcarbamoyl)pyridin-2-yl)-1-isopropyl-4,5,6,7-tetrahydro-1H-pyrazolo[4,3-c]pyridine-3-carboxamido)methyl)phenyl)-2-oxa-5-azabicyclo[2.2.2]octane-5-carboxamide]",,,7.82,"pIC50 [1, 5]: 7.41"
"CCC1CN(c2ccc(C(=O)N(C)C)cn2)Cc2c(C(=O)NCc3ccc(NC(=O)N(C)C)cc3)nn(CC)c21 (racemic) [Example 115, rac-(R)-5-(5-(dimethylcarbamoyl)pyridin-2-yl)-N-(4-(3,3-dimethylureido)benzyl)-1,7-diethyl-4,5,6,7-tetrahydro-1H-pyrazolo[4,3-c]pyridine-3-carboxamide]",,,8.70,"pIC50 [1, 5]: 7.92"
"C[C@H]1CN(c2ccc(C(=O)N(C)C)cn2)Cc2c(C(=O)NCc3ccc(NC(=O)N(C)C)cc3)nn(CC3CC3)c21 (single isomer, unassigned) [Example 287]",9.00,7.89,,
"CC(C)n1nc(C(=O)NCc2ccc(NC(=O)N3CCC(CO)CC3)cc2)c2c1CCN(c1ccc(C(=O)N(C)C)cn1)C2 [Example 175, 5-(5-(dimethylcarbamoyl)pyridin-2-yl)-N-(4-(4-(hydroxymethyl)piperidine-1-carboxamido)benzyl)-1-isopropyl-4,5,6,7-tetrahydro-1H-pyrazolo[4,3-c]pyridine-3-carboxamide]",,,8.15,"pIC50 [1, 5]: 7.17"
"CCn1nc(C(=O)NCc2ccc(-c3nc(C)c[nH]3)cc2)c2c1[C@@H](C)CN(c1ncc(C(=O)N(C)C)cn1)C2 [Example 397, (S)-5-(5-(dimethylcarbamoyl)pyrimidin-2-yl)-1-ethyl-7-methyl-N-(4-(4-methyl-1H-imidazol-2-yl)benzyl)-4,5,6,7-tetrahydro-1H-pyrazolo[4,3-c]pyridine-3-carboxamide]",9.00,8.05,,
"CNC(=O)Nc1ccc(CNC(=O)c2n[nH]c3c2CN(c2ccc(C(=O)N(C)C)cn2)CC3)cc1 [Example 526, 5-(5-(dimethylcarbamoyl)pyridin-2-yl)-N-(4-(3-methylureido)benzyl)-4,5,6,7-tetrahydro-1H-pyrazolo[4,3-c]pyridine-3-carboxamide]",5.40,5.69,,
"CC(C)n1nc(C(=O)NCc2ccc(NC(=O)N(C)C)cc2)c2c1CCN(c1ncc(C(=O)N(C)C)cn1)C2 [Example 35, 5-(5-(Dimethylcarbamoyl)pyrimidin-2-yl)-N-(4-(3,3-dimethylureido)benzyl)-1-isopropyl-4,5,6,7-tetrahydro-1H-pyrazolo[4,3-c]pyridine-3-carboxamide]",,,8.05,"pIC50 ([1]; inhibition of CCL17 secretion in human whole blood, 10 ng/mL IL13, 48 hours): 7.33"
"C[C@H]1CN(c2ccc(C(=O)N(C)C)cn2)Cc2c(C(=O)NCc3ccc(NC(=O)N(C)C)cc3)nn(C3CCOCC3)c21 (single isomer, unassigned) [Example 258]",8.70,8.10,,
"CC(C)n1nc(C(=O)NCc2ccc(NC(=O)N3CCN(C)CC3)cc2)c2c1[C@@H](C)CN(c1ccc(C(=O)N3Cc4cccnc4C3)cc1)C2 [Example 614, (S)-5-(4-(6,7-dihydro-5H-pyrrolo[3,4-b]pyridine-6-carbonyl)phenyl)-1-isopropyl-7-methyl-N-(4-(4-methylpiperazine-1-carboxamido)benzyl)-4,5,6,7-tetrahydro-1H-pyrazolo[4,3-c]pyridine-3-carboxamide]",9.40,,,"pIC50 [1, 2]: 8.15"
"CC(n1nc(C(=O)NCc2ccc(NC(=O)N(C)C)cc2)c2c1CCN(c1ccc(C(=O)N(C)C)cn1)C2)C(C)(C)C (centres unmarked) [Example 278, 1-(3,3-dimethylbutan-2-yl)-5-(5-(dimethylcarbamoyl)pyridin-2-yl)-N-(4-(3,3-dimethylureido)benzyl)-4,5,6,7-tetrahydro-1H-pyrazolo[4,3-c]pyridine-3-carboxamide]",8.30,6.60,,
"Cc1c[nH]c(-c2ccc(CNC(=O)c3nn(C(C)C)c4c3CN(c3ncc(N5CCOC5=O)cn3)C[C@@H]4C)cc2)n1 [Example 519, (S)-1-isopropyl-7-methyl-N-(4-(4-methyl-1H-imidazol-2-yl)benzyl)-5-(5-(2-oxooxazolidin-3-yl)pyrimidin-2-yl)-4,5,6,7-tetrahydro-1H-pyrazolo[4,3-c]pyridine-3-carboxamide]",8.10,6.66,,
"CC1COC(=O)N1c1ccc(N2CCc3c(c(C(=O)NCc4ccc(NC(=O)N(C)C)cc4)nn3C(C)C)C2)nc1 (centres unmarked) [Example 99, N-(4-(3,3-dimethylureido)benzyl)-1-isopropyl-5-(5-(4-methyl-2-oxooxazolidin-3-yl)pyridin-2-yl)-4,5,6,7-tetrahydro-1H-pyrazolo[4,3-c]pyridine-3-carboxamide]",,,7.77,"pIC50 [1, 5]: 6.34"
"CC(C)n1nc(C(=O)NCc2ccc(NC(=O)N3CCC(OC4CCNCC4)CC3)cc2)c2c1[C@@H](C)CN(c1ccc(C(=O)N(C)C)cc1)C2 [Example 485, (S)-5-(4-(Dimethylcarbamoyl)phenyl)-1-isopropyl-7-methyl-N-(4-(4-(piperidin-4-yloxy)piperidine-1-carboxamido)benzyl)-4,5,6,7-tetrahydro-1H-pyrazolo[4,3-c]pyridine-3-carboxamide hydrochloride]",,,,"pIC50 ([1]; human whole blood, IL-13 stimulated, 48 hours): 8.40; pEC50 (STAT6; Reporter EC50, IL-13 stimulated HaCaT STAT6 NanoLuc reporter cells): 9.00"
"CC(C)n1nc(C(=O)NCc2ccc(NC(=O)N(C)C)cc2)c2c1CCN(c1ccc(C(=O)N(C)C)cn1)[C@H]2C (single isomer, unassigned) [Example 507]",6.87,5.78,,
